Values quoted from earlier work in PubChem BioAssay AID1259409 (Chemical Carcinogenesis Research Information System (CCRIS), 2018).

Test system: rodent chemically induced tumor inhibition, incidence and multiplicity
Experiment: CCRIS tumor inhibitor studies
Settings: Species: MOUSE

## C#Cc1ccc2ccccc2c1
Carcinogen: 4-(METHYLNITROSAMINO)-1-(3-PYRIDYL)-1-BUTANONE, 64091-91-4, Dose [Inhibitor]: 0, 5 UMOL IN 0.1 ML CORN OIL ONCE 2 HR PRIOR TO CARCINOGEN DOSE (STUDY DURATION: 16 WK), Route [Inhibitor]: GAVAGE, Strain/Sex: STRAIN-A/FEMALE, Target Tissue: Type of Lesion: LUNG: ADENOMA, Dose [Carcinogen]: 10 UMOL IN 0.1 ML SALINE ONCE, Promoter: NONE USED
  tumour outcome (control, treated, inhibition, significance): 100%, 89%, 11%, not significant
Carcinogen: 7,12-DIMETHYLBENZ[A]ANTHRACENE, 57-97-6, Dose [Inhibitor]: 0, 3300 NMOL IN 0.2 ML ACETONE APPLIED TO BACK ONCE 5 MIN PRIOR TO CARCINOGEN DOSE (STUDY DURATION: 26 WK), Route [Inhibitor]: DERMAL, Strain/Sex: SENCAR/FEMALE, Target Tissue: Type of Lesion: SKIN: PAPILLOMA, Dose [Carcinogen]: 10 NMOL IN 0.2 ML ACETONE APPLIED TO BACK ONCE
  tumour outcome (control, treated, inhibition, significance): 100%, 96%, 4%, not calculated
Carcinogen: 7,12-DIMETHYLBENZ[A]ANTHRACENE, 57-97-6, Dose [Inhibitor]: 0, 33000 NMOL IN 0.2 ML ACETONE APPLIED TO BACK ONCE 5 MIN PRIOR TO CARCINOGEN D (STUDY DURATION: 26 WK), Route [Inhibitor]: DERMAL, Strain/Sex: SENCAR/FEMALE, Target Tissue: Type of Lesion: SKIN: PAPILLOMA, Dose [Carcinogen]: 10 NMOL IN 0.2 ML ACETONE APPLIED TO BACK ONCE.
  outcome: 100%, 100%, 0, not calculated
Carcinogen: 7,12-DIMETHYLBENZ[A]ANTHRACENE, 57-97-6, Dose [Inhibitor]: 0, 66000 NMOL IN 0.2 ML ACETONE APPLIED TO BACK ONCE 5 MIN PRIOR TO CARCINOGEN DOSE (STUDY DURATION: 20 WK), Route [Inhibitor]: DERMAL, Strain/Sex: SENCAR/FEMALE, Target Tissue: Type of Lesion: SKIN: PAPILLOMA, Dose [Carcinogen]: 10 NMOL IN 0.2 ML ACETONE APPLIED TO BACK ONCE.
  tumour outcome (control, treated, inhibition, significance): 100%, 100%, 0%, not calculated
Carcinogen: 7,12-DIMETHYLBENZ[A]ANTHRACENE, 57-97-6, Dose [Inhibitor]: 0, 66000 NMOL IN 0.2 ML ACETONE APPLIED TO BACK ONCE 5 MIN PRIOR TO CARCINOGEN DOSE (STUDY DURATION: 26 WK), Route [Inhibitor]: DERMAL, Strain/Sex: SENCAR/FEMALE, Target Tissue: Type of Lesion: SKIN: PAPILLOMA, Dose [Carcinogen]: 10 NMOL IN 0.2 ML ACETONE APPLIED TO BACK ONCE.
  outcome: 100%, 100%, 0, not calculated
Carcinogen: 7,12-DIMETHYLBENZ[A]ANTHRACENE, 57-97-6, Dose [Inhibitor]: 0, 132000 NMOL IN 0.2 ML ACETONE APPLIED TO BACK ONCE 5 MIN PRIOR TO CARCINOGEN DOSE (STUDY DURATION: 20 WK), Route [Inhibitor]: DERMAL, Strain/Sex: SENCAR/FEMALE, Target Tissue: Type of Lesion: SKIN: PAPILLOMA, Dose [Carcinogen]: 10 NMOL IN 0.2 ML ACETONE APPLIED TO BACK ONCE.
  tumour outcome (control, treated, inhibition, significance): 100%, 89%, 11%, not calculated
Carcinogen: BENZO[A]PYRENE, 50-32-8, Dose [Inhibitor]: 3300 NMOL IN 0.2 ML ACETONE APPLIED TO BACK ONCE 5 MIN PRIOR TO CARCINOGEN DOSE (STUDY DURATION: 26 WK), Route [Inhibitor]: DERMAL, Strain/Sex: SENCAR/FEMALE, Target Tissue: Type of Lesion: SKIN: PAPILLOMA, Dose [Carcinogen]: 200 NMOL IN 0.2 ML ACETONE APPLIED TO BACK ONCE.
  tumour outcome (control, treated, inhibition, significance): 100%, 95%, 5%, not calculated
Carcinogen: BENZO[A]PYRENE, 50-32-8, Dose [Inhibitor]: 33000 NMOL IN 0.2 ML ACETONE APPLIED TO BACK ONCE 5 MIN PRIOR TO CARCINOGEN DOSE (STUDY DURATION: 26 WK), Route [Inhibitor]: DERMAL, Strain/Sex: SENCAR/FEMALE, Target Tissue: Type of Lesion: SKIN: PAPILLOMA, Dose [Carcinogen]: 200 NMOL IN 0.2 ML ACETONE APPLIED TO BACK ONCE.
  tumour outcome (control, treated, inhibition, significance): 100%, 89%, 11%, not calculated
Carcinogen: BENZO[A]PYRENE, 50-32-8, Dose [Inhibitor]: 66000 NMOL IN 0.2 ML ACETONE APPLIED TO BACK ONCE 5 MIN PRIOR TO CARCINOGEN DOSE (STUDY DURATION: 20 WK), Route [Inhibitor]: DERMAL, Strain/Sex: SENCAR/FEMALE, Target Tissue: Type of Lesion: SKIN: PAPILLOMA, Dose [Carcinogen]: 200 NMOL IN 0.2 ML ACETONE APPLIED TO BACK ONCE.
  tumour outcome (control, treated, inhibition, significance): 75%, 74%, 1%, not calculated
Carcinogen: N-METHYL-N'-NITRO-N-NITROSOGUANIDINE, 70-25-7, Dose [Inhibitor]: 0, 33000 NMOL IN 0.2 ML ACETONE APPLIED TO BACK ONCE 5 MIN PRIOR TO CARCINOGEN DOSE (STUDY DURATION: 20 WK), Route [Inhibitor]: DERMAL, Strain/Sex: SENCAR/FEMALE, Target Tissue: Type of Lesion: SKIN: PAPILLOMA, Dose [Carcinogen]: 2500 NMOL IN 0.2 ML ACETONE APPLIED TO BACK ONCE.
  tumour outcome (control, treated, inhibition, significance): 78%, 85%, -9%, not calculated
